Source: paper PMC9490041, “Determinants of affinity, specificity, and phase separation in a supramodule from Post-synaptic density protein 95” (iScience, 2022)
Read-outs that look alike come from different tables or passages of the source. Ends that are not written are not given here.

Key:
Experiment in all cases: FP displacement (competition) of FITC-15 AA CRIPT by library peptide, IC50 and Ki
PSG G322A (PSD-95) = settings: for IC50: read-out: IC50 (µM), PSG G322A; for Ki: read-out: Ki (µM), PSG G322A
PSG (PSD-95) = settings: for IC50: read-out: IC50 (µM), PSG
PSG G335A (PSD-95) = settings: for IC50: read-out: IC50 (µM), PSG G335A; for Ki: read-out: Ki (µM), PSG G335A
PSG G322A G335A (PSD-95) = settings: for IC50: read-out: IC50 (µM), PSG G322A G335A; for Ki: read-out: Ki (µM), PSG G322A G335A
[1] = FP displacement of FITC-15 AA CRIPT probe by acetylated PSD library peptide
[2] = read-out: Ki (µM), PSG, FP displacement of FITC-15 AA CRIPT probe by acetylated PSD library peptide
[3] = FP displacement of FITC-15 AA CRIPT probe by acetylated PSD library peptide (P-13 to P0 plus extra N-terminal Y)
[4] = FP displacement of FITC-15 AA CRIPT probe by PSD library peptide, protein PSG G322A
[5] = FP displacement of FITC-15 AA CRIPT probe by PSD library peptide, protein PSG (wild type)
[6] = read-out: Ki (µM), PSG, FP displacement of FITC-15 AA CRIPT probe by PSD library peptide, protein PSG (wild type)
[7] = FP displacement of FITC-15 AA CRIPT probe by PSD library peptide, protein PSG G335A
[8] = FP displacement of FITC-15 AA CRIPT probe by PSD library peptide, protein PSG G322A G335A

| Compound | IC50 (PSG G322A (PSD-95); [1]) [µM] | Ki (PSG G322A (PSD-95); [1]) [µM] | IC50 (PSG (PSD-95); [1]) [µM] | Ki (PSG (PSD-95); [2]) [µM] | IC50 (PSG G335A (PSD-95); [1]) [µM] | Ki (PSG G335A (PSD-95); [1]) [µM] | IC50 (PSG G322A G335A (PSD-95); [3]) [µM] | Ki (PSG G322A G335A (PSD-95); [1]) [µM] | IC50 (PSG G322A (PSD-95); [4]) [µM] | Ki (PSG G322A (PSD-95); [4]) [µM] | Ki (PSG (PSD-95); FP displacement of 5 nM FITC-15 AA CRIPT by non-labeled acetylated peptide, room temperature, Ki from IC50, technical triplicates, PSG) [µM] | IC50 (PSG (PSD-95); [5]) [µM] | Ki (PSG (PSD-95); [6]) [µM] | IC50 (PSG G335A (PSD-95); [7]) [µM] | IC50 (PSG G322A G335A (PSD-95); [8]) [µM] | Ki (PSG G335A (PSD-95); [7]) [µM] | Ki (PSG G322A G335A (PSD-95); [8]) [µM] |
| --- | --- | --- | --- | --- | --- | --- | --- | --- | --- | --- | --- | --- | --- | --- | --- | --- | --- |
| CC(=O)N[C@@H](Cc1ccc(O)cc1)C(=O)N[C@@H](CC(C)C)C(=O)N1CCC[C@H]1C(=O)N[C@@H](CC(C)C)C(=O)N[C@@H](CC(=O)O)C(=O)N[C@H](C(=O)N[C@@H](CCC(N)=O)C(=O)N[C@@H](CCC(=O)O)C(=O)NCC(=O)N[C@@H](CC(=O)O)C(=O)N[C@@H](Cc1ccccc1)C(=O)N[C@@H](CCC(N)=O)C(=O)N[C@H](C(=O)N[C@@H](CCC(=O)O)C(=O)N[C@H](C(=O)O)C(C)C)[C@@H](C)O)C(C)C [AGRB3] | 342 | 148 | 1080 | 459 | 1130 | 402 | 534 | 185 | – | – | – | – | – | – | – | – | – |
| CSCC[C@H](NC(=O)[C@H](CO)NC(=O)[C@H](Cc1ccc(O)cc1)NC(=O)[C@H](CC(C)C)NC(=O)[C@H](Cc1ccc(O)cc1)NC(=O)[C@H](Cc1ccc(O)cc1)NC(=O)[C@H](Cc1ccccc1)NC(=O)[C@H](Cc1ccc(O)cc1)NC(C)=O)C(=O)N[C@H](C(=O)N[C@@H](Cc1ccc(O)cc1)C(=O)N[C@H](C(=O)N[C@@H](CC(C)C)C(=O)N[C@H](C(=O)N[C@@H](CO)C(=O)N[C@@H](Cc1ccccc1)C(=O)O)C(C)C)[C@@H](C)O)C(C)C [CNIH2] | 2260 | 982 | 2080 | 888 | 516 | 184 | 727 | 252 | – | – | – | – | – | – | – | – | – |
| CC[C@H](C)[C@H](NC(=O)[C@H](Cc1ccc(O)cc1)NC(=O)[C@H](CO)NC(=O)CNC(=O)[C@H](CO)NC(=O)[C@H](CCC(N)=O)NC(=O)[C@H](Cc1ccc(O)cc1)NC(C)=O)C(=O)N[C@@H](Cc1c[nH]c2ccccc12)C(=O)N[C@H](C(=O)N1CCC[C@H]1C(=O)N[C@@H](C)C(=O)N[C@@H](CCCCN)C(=O)N[C@@H](CCC(=O)O)C(=O)N[C@@H](CCCCN)C(=O)N[C@@H](CC(C)C)C(=O)O)C(C)C [DLG1] | 1600 | 692 | 1470 | 628 | 1310 | 466 | 1590 | 550 | – | – | – | – | – | – | – | – | – |
| CC(=O)N[C@@H](Cc1ccc(O)cc1)C(=O)N[C@@H](CC(=O)O)C(=O)N[C@@H](CO)C(=O)N[C@H](C(=O)N[C@@H](CCC(=O)O)C(=O)N[C@@H](CCC(N)=O)C(=O)N[C@@H](CO)C(=O)N[C@@H](CC(=O)O)C(=O)N[C@H](C(=O)N[C@@H](CCCNC(=N)N)C(=O)N[C@@H](Cc1ccccc1)C(=O)N[C@@H](CO)C(=O)N[C@@H](CO)C(=O)N[C@@H](C)C(=O)N[C@H](C(=O)O)C(C)C)C(C)C)[C@@H](C)O [GPER1] | – | – | – | – | – | – | – | – | 190 | 82 | – | 865 | 456 | 499 | 238 | 178 | 82 |
| CC[C@H](C)[C@H](NC(=O)[C@H](CCC(=O)O)NC(=O)[C@@H](NC(=O)[C@H](CO)NC(=O)[C@H](CCC(=O)O)NC(=O)[C@@H](NC(=O)[C@H](CCCNC(=N)N)NC(=O)[C@H](CCC(=O)O)NC(=O)[C@H](CC(C)C)NC(=O)[C@H](CCCNC(=N)N)NC(=O)[C@H](CO)NC(=O)[C@@H]1CCCN1C(=O)[C@@H](NC(=O)[C@H](Cc1c[nH]c2ccccc12)NC(=O)[C@H](Cc1ccc(O)cc1)NC(C)=O)[C@@H](C)O)[C@@H](C)CC)[C@@H](C)O)C(=O)O [LZTS3] | – | – | – | – | – | – | – | – | 462 | 200 | – | 2120 | 902 | 630 | 662 | 224 | 229 |
| Ac-YSRQHSKLLDFDDVL [NSMF] | – | – | 1390 | 592 | – | – | – | – | – | – | – | – | – | – | – | – | – |

Continued, values first:

| IC50 (PSG G322A (PSD-95); [1]) [µM] | Ki (PSG G322A (PSD-95); [1]) [µM] | IC50 (PSG (PSD-95); [1]) [µM] | Ki (PSG (PSD-95); [2]) [µM] | IC50 (PSG G335A (PSD-95); [1]) [µM] | Ki (PSG G335A (PSD-95); [1]) [µM] | IC50 (PSG G322A G335A (PSD-95); [3]) [µM] | Ki (PSG G322A G335A (PSD-95); [1]) [µM] | IC50 (PSG G322A (PSD-95); [4]) [µM] | Ki (PSG G322A (PSD-95); [4]) [µM] | Ki (PSG (PSD-95); FP displacement of 5 nM FITC-15 AA CRIPT by non-labeled acetylated peptide, room temperature, Ki from IC50, technical triplicates, PSG) [µM] | IC50 (PSG (PSD-95); [5]) [µM] | Ki (PSG (PSD-95); [6]) [µM] | IC50 (PSG G335A (PSD-95); [7]) [µM] | IC50 (PSG G322A G335A (PSD-95); [8]) [µM] | Ki (PSG G335A (PSD-95); [7]) [µM] | Ki (PSG G322A G335A (PSD-95); [8]) [µM] | Compound |
| --- | --- | --- | --- | --- | --- | --- | --- | --- | --- | --- | --- | --- | --- | --- | --- | --- | --- |
| 2060 | 894 | 1410 | 600 | 2540 | 907 | 2450 | 847 | – | – | – | – | – | – | – | – | – | CSCC[C@H](NC(=O)[C@H](CCC(N)=O)NC(=O)[C@H](CC(=O)O)NC(=O)[C@H](Cc1ccc(O)cc1)NC(=O)[C@H](CC(=O)O)NC(=O)[C@@H]1CCCN1C(=O)[C@H](CO)NC(=O)[C@H](CCCCN)NC(=O)[C@H](CC(C)C)NC(=O)[C@H](Cc1ccc(O)cc1)NC(C)=O)C(=O)N[C@@H](CO)C(=O)N[C@@H](CO)C(=O)N[C@@H](CO)C(=O)N1CCC[C@H]1C(=O)N[C@@H](CS)C(=O)O [CCG5] |
| – | – | – | – | – | – | – | – | 1.49 | 0.496 | < 75 | 6 | 2.44 | 2 | 0.868 | – | – | CC(=O)N[C@@H](Cc1ccc(O)cc1)C(=O)N[C@@H](CCCCN)C(=O)N[C@@H](CCCCN)C(=O)N[C@H](C(=O)N[C@@H](CC(C)C)C(=O)N[C@@H](CC(=O)O)C(=O)N[C@H](C(=O)N[C@@H](CCCCN)C(=O)N[C@@H](CC(N)=O)C(=O)N[C@@H](Cc1ccc(O)cc1)C(=O)N[C@@H](CCCCN)C(=O)N[C@@H](CCC(N)=O)C(=O)N[C@H](C(=O)N[C@@H](CO)C(=O)N[C@H](C(=O)O)C(C)C)[C@@H](C)O)[C@@H](C)O)C(C)C [CRIPT] |
| 83 | 36 | 380 | 161 | 1230 | 438 | 980 | 339 | – | – | – | – | – | – | – | – | – | CC(=O)N[C@@H](Cc1ccc(O)cc1)C(=O)N[C@H](C(=O)N[C@@H](CCC(=O)O)C(=O)N[C@@H](CO)C(=O)N[C@@H](CCCCN)C(=O)N[C@@H](CCCCN)C(=O)N[C@@H](Cc1c[nH]cn1)C(=O)NCC(=O)N[C@@H](CCCNC(=N)N)C(=O)N[C@@H](Cc1c[nH]c2ccccc12)C(=O)N[C@@H](CCCCN)C(=O)N[C@@H](CC(C)C)C(=O)N[C@@H](Cc1c[nH]c2ccccc12)C(=O)N[C@@H](Cc1ccccc1)C(=O)N[C@@H](CC(C)C)C(=O)O)[C@@H](C)O [INSY2] |
| – | – | – | – | – | – | – | – | 564 | 244 | – | 1500 | 793 | 237 | 343 | 84 | 119 | CC[C@H](C)[C@H](NC(=O)[C@H](CC(N)=O)NC(=O)CNC(=O)CNC(=O)[C@H](CO)NC(=O)[C@H](Cc1ccc(O)cc1)NC(=O)[C@H](CCC(=O)O)NC(=O)[C@@H]1CCCN1C(=O)[C@H](Cc1ccc(O)cc1)NC(C)=O)C(=O)N[C@H](C(=O)N[C@@H](CCCNC(=N)N)C(=O)N[C@H](C(=O)N[C@@H](CO)C(=O)N[C@@H](C)C(=O)N[C@@H](CC(C)C)C(=O)O)C(C)C)C(C)C [KCND2] |
| – | – | – | – | – | – | – | – | 2000 | 867 | – | 1220 | 518 | – | 1170 | – | 405 | CC(=O)N[C@@H](Cc1ccc(O)cc1)C(=O)N[C@@H](Cc1c[nH]cn1)C(=O)N[C@@H](Cc1c[nH]cn1)C(=O)N[C@H](C(=O)N[C@@H](CO)C(=O)N[C@@H](Cc1ccc(O)cc1)C(=O)N[C@H](C(=O)N[C@@H](C)C(=O)N[C@@H](CO)C(=O)N[C@@H](CCCCN)C(=O)N[C@H](C(=O)N[C@@H](CCC(=O)O)C(=O)N[C@H](C(=O)N[C@H](C(=O)N[C@H](C(=O)O)C(C)C)[C@@H](C)O)C(C)C)[C@@H](C)O)[C@@H](C)O)[C@@H](C)O [SHSA6] |
| – | – | 1440 | 613 | 663 | 236 | 733 | 254 | – | – | – | – | – | – | – | – | – | CC[C@H](C)[C@H](NC(=O)[C@H](CC(C)C)NC(=O)[C@H](C)NC(=O)[C@@H](NC(=O)[C@H](C)NC(=O)[C@H](Cc1ccc(O)cc1)NC(C)=O)C(C)C)C(=O)N[C@@H](C)C(=O)N[C@@H](Cc1ccc(O)cc1)C(=O)N[C@@H](CC(C)C)C(=O)N[C@@H](CO)C(=O)N[C@@H](CCCCN)C(=O)N[C@@H](CC(N)=O)C(=O)N[C@@H](CC(N)=O)C(=O)N[C@@H](Cc1c[nH]cn1)C(=O)N[C@@H](CC(C)C)C(=O)O [SYNG1] |
| – | – | 2060 | 879 | 2060 | 736 | 973 | 337 | – | – | – | – | – | – | – | – | – | Ac-YDKPLSKKHAHSVNF [PDLI5] |
